Measurements taken from patent publication EP0016746A1, “New therapeutically active spirocycloalkylamines and pharmaceutical preparations comprising such compounds” (priority 1979, dated 1980).

What was measured:
[1] = test system: central dopamine (DA) receptors; experiment: Blockade of apomorphine induced stereotypies and hyperactivity in rats; assay type: in vivo, Male Sprague-Dawley rats; conditions: for ED50 Hyper-activity / ED50 Stereo-typies: i.p. 60 min prior to apomorphine hydrochloride 1 mg/kg s.c.; for ED50 Hyper-activity: dose reducing number of animals showing hyperactivity by 50% over 60 min observation; for ED50 Stereo-typies: dose reducing strength of stereotypies by 50% over 60 min observation
Source text: The DA receptor blockade as measured by different in vitro anc in vivo techniques correlate roughly with the antipsychotic efficacy. The blockade of the behavioural effects induced by the DA receptor agonist apomorphine is highly correlated to the antipsychotic effect of various neuroleptics. The ability of potential neuroleptics to block the apomorphine induced behaviours may thus be a valuable predictor of the anti- psychotic efficacy in man.
Male Sprague-Dawley rats, weighing 250-300 g, were used. […] The compounds were injected intraperitoneally 60 min. prior to apomorphine hydrochloride (1 mg/kg dissolved in saline), which was injected subcutaneously into the neck. […] Directly after the injection the animals were placed in the cages, one in each cage. Scoring of the stereotypies was performed by a modified version (Fuxe et al. in Rhinencephale Neurotransmetteurs et Psychoses, by G. Masson, Paris 1977, p. 253) of the system introduced by Costall and Naylor (Eur. J. Pharmacol. 24 8 (1973).
The number of animals, displaying hyperactivity caused by apomorphine, was scored. Each group consisted of 6-8 animals. Saline controls were always run simultaneously. The EO50's for stereotypies are the doses which reduce the strength of the stereotypies by 50% over the observation period of 60 min. The Ed50's for hyperactivity are the doses which reduce the number of animals showing hyperactivity by 50% over the observation period of 60 min. EO50's were calculated from log dose-curves from 4-6 levels with 6-8 animals per dose level. The test compounds were dissolved in saline or water.

[2] = Heart effects: arterial blood pressure, heart rate and electrocardiograms after consecutive increasing intravenous doses in restrained rats; assay type: in vivo, Male Sprauge-Dawley rats; conditions: for Minimum doses causing changes in: Cardiogram intervals PR / Minimum doses causing changes in: Cardiogram intervals QRS / Minimum doses causing changes in: Cardiogram intervals QT / Minimum doses causing changes in: Heart rate (Decrease) / Minimum doses causing changes in: Mean arterial blood pressure (Decrease): change of more than 15% from values before administration
Procedure: Male Sprauge-Dawley rats weighing 290-360 grams were used. The animals were prepared for recording the arterial blood pressure through a catheter implanted into the abdominal aorta and for injection of drugs through a catheter implanted into the abdominal vena cava. Both catheters were exteriorized at the base of the neck. At least five days were allowed for recovery after the operation.
The animals were kept immobilized in restraining cages during the experiment. The arterial blood pressure was continuously monitored on a Grass Model 7 Polygraph via a Statham P23Gc transducer. Electrocardiograms were taken from subcutaneously placed thin needle electrodes and recorded on a Mingograph 34 (Elema-Schänander AB, Sweden).
Groups of rats were given consecutive increasing intravenous doses of the test compounds from the dose scale: 0.25, 0.5, 1, 2, 4, 8, 16, 32 and 64 […]. The test compounds were injected over a period of 30 seconds at an interval of five minutes at doses of 0.25-8 […] and with an interval of 15 minutes at higher dose ranges.
The minimum doses that caused changes in mean arterial blood pressure, heart rate, PR, QRS and QT intervals of more than 15% from values before administration were arbitrarily defined as a drug effect.

[3] = i.p., rats, comparison in words

CN(C)C1C=CC2(CC1)c1ccccc1CCc1ccc(Cl)cc12 (stereo not shown) [-N(CH3)2, reference compound]
ED50 Hyper-activity [1]: 6.4 µmol/kg
ED50 Stereo-typies [1]: 35 µmol/kg
Minimum doses causing arrhythmias (Second degree AV-block) [2]: 2 to 4 µmol/kg
Minimum doses causing changes in: Cardiogram intervals PR [2]: 2 µmol/kg
Minimum doses causing changes in: Cardiogram intervals QRS [2]: >4 µmol/kg
Minimum doses causing changes in: Cardiogram intervals QT [2]: 4 µmol/kg
Minimum doses causing changes in: Heart rate (Decrease) [2]: 2 µmol/kg
Minimum doses causing changes in: Mean arterial blood pressure (Decrease) [2]: 4 µmol/kg

CN(C)CCCN1c2ccccc2Sc2ccc(Cl)cc21 [Chlorpromazine, reference compound]
ED50 Hyper-activity [1]: 6.2 µmol/kg
ED50 Stereo-typies [1]: 6.2 µmol/kg

CN1CCN(C2=Nc3cc(Cl)ccc3Nc3ccccc32)CC1 [Clozapine, reference compound]
ED50 Hyper-activity [1]: 26 µmol/kg
ED50 Stereo-typies [1]: 104 µmol/kg

CNC1C=CC2(CC1)c1ccccc1CCc1ccc(Cl)cc12 (stereo not shown) [Example 3, 3-Chloro-10,11-dihydro-N-methylspiro-[5H-dibenzo[a,d]-cyclohBptene-5,1'-cyclohex-2-Bn]-4'-amine]
ED50 Hyper-activity [1]: 15 µmol/kg
ED50 Stereo-typies [1]: 65 µmol/kg
activity against apomorphine induced behaviours (in words) ([1]; i.p., rats, summary of Table 1): active
Minimum doses causing arrhythmias (Second degree AV-block) [2]: 16 µmol/kg
Minimum doses causing changes in: Cardiogram intervals PR [2]: 16 µmol/kg
Minimum doses causing changes in: Cardiogram intervals QRS [2]: 8 µmol/kg
Minimum doses causing changes in: Cardiogram intervals QT [2]: 16 µmol/kg
Minimum doses causing changes in: Heart rate (Decrease) [2]: 16 µmol/kg
Minimum doses causing changes in: Mean arterial blood pressure (Decrease) [2]: 8 to 16 µmol/kg

OCCN1CCN(C2C=CC3(CC2)c2ccccc2CCc2ccc(Cl)cc23)CC1 (stereo not shown) [Example 4]
ED50 Hyper-activity [1]: 24 µmol/kg
ED50 Stereo-typies [1]: 70 µmol/kg
potency to block apomorphine induced hyperactivity compared with clozapine [1, 3]: as potent as clozapine
potency to block the stereotypies compared with clozapine [1, 3]: more potent than clozapine
Minimum doses causing arrhythmias (Second degree AV-block) [2]: 64 µmol/kg
Minimum doses causing changes in: Cardiogram intervals PR [2]: 32 µmol/kg
Minimum doses causing changes in: Cardiogram intervals QRS [2]: 16 µmol/kg
Minimum doses causing changes in: Cardiogram intervals QT [2]: 16 µmol/kg
Minimum doses causing changes in: Heart rate (Decrease) [2]: 16 to 32 µmol/kg
Minimum doses causing changes in: Mean arterial blood pressure (Decrease) [2]: 8 µmol/kg
